Laboratory results taken from US7501513B2, “Immunosuppressive effects of pteridine derivatives” (4 AZA Bioscience NV, priority 2003, dated 2009).

test system: human TNF-α; assay: TNF-α assay: suppression of TNF-α production by LPS-stimulated PBMC (ELISA); type: cell-based; conditions: Homo sapiens, PBMC; Table 2; LPS 1 μg/ml, 72 hours
Method: (§1) Peripheral blood mononuclear cells (herein referred as PBMC), in response to stimulation by lipopolysaccharide (LPS), a gram-negative bacterial endotoxin, produce various […], in particular human TNF-α and IL-1 β. Inhibition of the activation of PBMC can therefore be measured by the level of suppression of the production of TNF-α or IL-1 β by PBMC in response to stimulation by LPS.
(§2) Such inhibition measurement was performed as follows: PBMC were isolated from heparinized peripheral blood by density gradient centrifugation over Lymphoprep (commercially available from Nycomed, Norway). LPS was then added to the PMBC suspension in complete medium (10^6 cells/ml) at a final concentration of 1 μg/ml. The pteridine derivative to be tested was added at different concentrations (0.1 μM, 1 μM and 10 μM) and the cells were incubated at 37° C. for 72 hours in 5% CO2. The supernatants were collected, then TNF-α and/or IL-1 β concentrations were measured with respectively an anti-TNF-α antibody or an anti-IL-1 β antibody in a sandwich ELISA (Duo Set ELISA human TNFα, commercially available from R&D Systems, United Kingdom). The calorimetric reading of the ELISA was measured by a Multiskan RC plate reader (commercially available from ThermoLabsystems, Finland) at 450 nm (reference wavelength: 690 nm). Data analysis was performed with Ascent software 2.6. (also from ThermoLabsystems, Finland): a standard curve (recombinant human TNFα) was drawn and the amount (pg/ml) of each sample on the standard curve was determined.
The % suppression of human TNFα production or human IL-1 β by the pteridine derivatives of the invention (drugs) was calculated using the formula: […]
as §1, with “(hereinafter LPS),” for “(LPS),”, “TNF-α.” for “TNF-α and IL-1 β.”, “TNF-α” for “TNF-α or IL-1 β”
as §2, with “TNF-α” for “TNF-α and/or IL-1 β”, “with” for “with respectively”, “anti-TNF-α” for “anti-TNF-α antibody or an anti-IL-1 β”, “TNF-α,” for “TNFα,”, “colorimetric” for “calorimetric”
The % suppression of human TNFα production by the pteridine derivatives of the invention (drugs) was calculated using the formula: […]

| Compound | IC50 [µM] |
| --- | --- |
| CCOc1nc(N)nc2ncc(-c3ccc(OC)cc3)nc12 [Example 13, 2-amino-6-(p-methoxyphenyl)-4-ethoxy-pteridine] | 4.5 |
| CCOc1nc(N)nc2ncc(-c3ccccc3OC)nc12 [Example 14, 2-amino-6-(o-methoxyphenyl)-4-ethoxy-pteridine] | > 10 |
| CC(C)Oc1nc(N)nc2ncc(-c3ccc(C(F)(F)F)cc3)nc12 [Example 36, 2-amino-6-(p-trifluoromethylphenyl)-4-isopropoxypteridine] | 9.1 |
| CC(C)Oc1nc(N)nc2ncc(-c3ccc(F)c(F)c3)nc12 [Example 37, 2-amino-6-(3,4-difluorophenyl)-4-isopropoxypteridine] | 6.6 |
| CCOc1ccc(-c2cnc3nc(N)nc(OC(C)C)c3n2)cc1 [Example 39, 2-amino-6-(p-ethoxyphenyl)-4-isopropoxypteridine] | > 10 |
| CC(C)Oc1nc(N)nc2ncc(-c3ccc(C#N)cc3)nc12 [Example 42, 2-amino-6-(p-cyanophenyl)-4-isopropoxypteridine] | 6.3 |

same assay, conditions: Table 2; LPS 1 μg/ml, 72 hours

| Compound | IC50 [µM] |
| --- | --- |
| CC(C)Oc1nc(N)nc2c1ncc[n+]2[O-] [Example 10, 2-amino-4-isopropoxypteridine-N^8-oxide] | 4 |
| COc1ccc(-c2cnc3nc(N)nc(OC(C)C)c3n2)cc1 [Example 38] | 6.2 |

same assay, conditions: Table 4; LPS 1 μg/ml, 72 hours

| Compound | IC50 [µM] |
| --- | --- |
| CCOC(=O)CCC(=O)Nc1cccc(-c2cnc3nc(N)nc(N4CCOCC4)c3n2)c1 [Example 94, 2-amino-4-morpholino-6-(3-ethylsuccinylaminophenyl)pteridine] | 5.5 |
| CCOC(=O)CCCOc1ccc(-c2cnc3nc(N)nc(N4CCOCC4)c3n2)cc1 [Example 108, 2-amino-4-morpholino-6-(4-phenoxy-butyric acid ethyl ester) pteridine] | 0.9 |
| CCOC(=O)COc1ccc(-c2cnc3nc(N)nc(N4CCOCC4)c3n2)cc1 [Example 109, 2-amino-4-morpholino-6-(4-phenoxy-acetic acid ethyl ester) pteridine] | 0.6 |
| COc1ccc(-c2cnc3nc(N)nc(NCc4ccccc4)c3n2)cc1OC [Example 113] | 6.5 |
| COc1ccc(-c2cnc3nc(N)nc(N4CC=CCC4)c3n2)cc1OC [Example 117] | 0.5 |

test system: Peripheral blood mononuclear cells; assay: Mixed lymphocyte reaction (MLR) test; type: cell-based, human; conditions: Homo sapiens, PBMC; Table 3; 50% suppression of the MLR
Method: Pteridine derivatives were first dissolved (10 mM) in dimethylsulfoxide (hereinafter referred as DMSO) and further diluted in culture medium before use for the following in vitro experiments. The commercially available culture medium consisted of RPMI-1640+10% foetal calf serum (FCS). Some pteridine derivatives described the previous examples were tested in the following lymphocyte activation tests:
(§3) Peripheral blood mononuclear cells (hereinafter referred as PBMC) were isolated from heparinized peripheral blood by density gradient centrifugation over Lymphoprep (Nycomed, Maorstua, Norway). Allogeneic PBMC or Eppstein-Barr Virus-transformed human B cells [commercially available under the trade name RPMI1788 (ATCC name CCL156)] which strongly express B7-1 and B7-2 antigens were used as stimulator cells after irradiation with 30 Gy. MLR was performed in triplicate wells. After 5 days incubation at 37° C., 1 μCi [^3H]-thymidine was added to each cup. After a further 16 hours incubation, cells were harvested and counted in a β-counter. Inhibition of proliferation by a compound (drug) described in some of the previous examples was counted using the formula:
(§4) [formula] wherein cpm is the thymidine count per minute. The MLR assay is regarded by those skilled in the art as an in vitro analogue of the transplant rejection since it is based on the recognition of allogeneic major histocompatibility antigens on the stimulator leukocytes, by responding lymphocytes. Assays for CD3 and CD 28
Pteridine derivatives were first dissolved (10 mM) in dimethylsulfoxide (hereinafter referred as DMSO) and further diluted in culture medium before use for the following in vitro experiments. The commercially available culture medium consisted of RPMI-1640+10% foetal calf serum (FCS). Some pteridine derivatives described in the previous examples (as indicated in table 3 below) were tested in the following mixed lymphocyte reaction (MLR) assay.
as §3, with “CCL156)]which” for “CCL156)] which”
as §4, with “lymphocytes.” for “lymphocytes. Assays for CD3 and CD 28”

| Compound | IC50 [µM] |
| --- | --- |
| Nc1cccc(-c2cnc3nc(N)nc(N4CCOCC4)c3n2)c1 [Example 75, 2-amino-4-morpholino-6-(3-aminophenyl)pteridine] | 4.1 |
| Nc1nc(N2CCOCC2)c2nc(-c3ccc(NC(=O)c4ccccc4)cc3)cnc2n1 [Example 76, 2-amino-4-morpholino-6-(4-benzoylaminophenyl)pteridine] | 2.1 |
| Nc1nc(N2CCOCC2)c2nc(-c3ccc(NC(=O)COc4ccccc4)cc3)cnc2n1 [Example 77, 2-amino-4-morpholino-6-(4-phenoxyacetylaminophenyl)pteridine] | 2.5 |
| CCC(=O)Nc1ccc(-c2cnc3nc(N)nc(N4CCOCC4)c3n2)cc1 [Example 78, 2-amino-4-morpholino-6-(4-propionylaminophenyl)pteridine] | 6.5 |
| Nc1nc(N2CCOCC2)c2nc(-c3ccc(NC(=O)C4CCCCC4)cc3)cnc2n1 [Example 80, 2-amino-4-morpholino-6-(4-cyclohexanoylaminophenyl)pteridine] | 4.1 |
| Nc1nc(N2CCOCC2)c2nc(-c3ccc(NC(=O)c4ccncc4)cc3)cnc2n1 [Example 83, 2-amino-4-morpholino-6-(4-isonicotinoylaminophenyl)pteridine] | 3.9 |
| Nc1nc(N2CCOCC2)c2nc(-c3cccc(NC(=O)c4ccccc4)c3)cnc2n1 [Example 88, 2-amino-4-morpholino-6-(3-benzoylaminophenyl)pteridine] | 4.9 |
| Nc1nc(N2CCOCC2)c2nc(-c3cccc(NS(=O)(=O)c4ccccc4)c3)cnc2n1 [Example 89, 2-amino-4-morpholino-6-(3-benzensulfonylaminophenyl)pteridine] | 0.8 |
| Nc1nc(N2CCOCC2)c2nc(-c3cccc(NC(=O)COc4ccccc4)c3)cnc2n1 [Example 90, 2-amino-4-morpholino-6-(3-phenoxyacetylaminophenyl)pteridine] | 10 |
| Nc1nc(N2CCOCC2)c2nc(-c3cccc(NC(=O)c4ccncc4)c3)cnc2n1 [Example 91, 2-amino-4-morpholino-6-(3-isonicotinoylaminophenyl)pteridine] | 10 |
| Nc1nc(N2CCOCC2)c2nc(-c3cccc(NC(=O)C4CCCCC4)c3)cnc2n1 [Example 92, 2-amino-4-morpholino-6-(3-cyclohexanoylaminophenyl)pteridine] | 2.9 |
| Nc1nc(N2CCOCC2)c2nc(-c3cccc(NC(=O)COCc4ccccc4)c3)cnc2n1 [Example 96, 2-amino-4-morpholino-6-(3-benzyloxyacetylaminophenyl)pteridine] | 4.1 |
| COCCOc1ccc(-c2cnc3nc(N)nc(N4CCOCC4)c3n2)cc1 [Example 110, 2-amino-4-morpholino-6-(4-(2-methoxyethoxy)-phenyl)pteridine] | 5.4 |

same assay, conditions: Table 3; 50% suppression of the MLR

| Compound | IC50 [µM] |
| --- | --- |
| COc1ccc(-c2cnc3nc(NCc4cccs4)nc(NCc4cccs4)c3n2)cc1OC [Example 68, 2,4-di-(thienyl-2-methylamino)-6-(3,4-dimethoxy-Phenyl) pteridine] | 0.8 |
| CC(=O)Nc1cccc(-c2cnc3nc(N)nc(N4CCOCC4)c3n2)c1 [Example 73, 2-amino-4-morpholino-6-(3-acetanilide)pteridine] | 6.4 |
| Nc1nc(N2CCOCC2)c2nc(-c3ccc(NC(=O)c4ccco4)cc3)cnc2n1 [Example 79, 2-amino-4-morpholino-6-(4-furoylaminophenyl)pteridine] | 7.8 |
| Nc1nc(N2CCOCC2)c2nc(-c3ccc(NC(=O)c4cccc5ccccc45)cc3)cnc2n1 [Example 84, 2-amino-4-morpholino-6-(4-naphtoylaminophenyl)pteridine] | 4 |
| CC(C)(C)OC(=O)N[C@H](Cc1ccccc1)C(=O)Nc1cccc(-c2cnc3nc(N)nc(N4CCOCC4)c3n2)c1 [Example 99, 2-amino-4-morpholino-6-[3-Boc-(D)-phenylalanine-aminophenyl]pteridine] | 4.1 |
